Experiment in all cases: In vitro antibacterial activity test (broth microdilution)
Holding throughout (type): cell-based
(In general: In broth dilution the organism is exposed to a series of concentrations in liquid medium.)

For one assay, the system named is A. baumannii 46. A digest of the protocol: (§1)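 Susceptibility of clinical bacterial isolates is measured by CLSI broth microdilution. Final drug concentrations range 0.0626–128 ug/mL in 2.5% (V/V) DMSO; MIC90 recorded as lowest concentration blocking visible growth of 90% of organisms.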
The test system of another assay is A. baumannii 49. The method, boiled down:
as §1

The test system of the next assay is A. baumannii 52. The method, boiled down: as §1
Assay [1] concerns A. calcoaceticus ATCC15473. A digest of the protocol:
as §1

The subject of another assay is E. cloacae β19. The method, boiled down:
as §1

A further assay has as its system E. coli AG100. A digest of the protocol: as §1
Another assay deals with E. coli β4. The method, boiled down:
as §1

The next assay has as its system K. pneumoniae 2011E. A digest of the protocol: as §1
Another assay deals with K. pneumoniae β10. The method, boiled down: as §1
The test system of the next assay is K. pneumoniae β11. A digest of the protocol: as §1
For a further assay, the system named is K. pneumoniae β13. The method, boiled down: as §1
The next assay relates to K. pneumoniae β14. The method, boiled down:
as §1

The next assay relates to K. pneumoniae β9. A digest of the protocol:
as §1

The next assay has as its system M. catarrhalis 2524. A digest of the protocol: as §1
Another assay relates to P. aeruginosa 1912E. The method, boiled down: as §1
For another assay, the system named is P. aeruginosa 37. The method, boiled down: as §1
The next assay relates to P. aeruginosa 40. The method, boiled down: as §1
The next assay has as its system P. aeruginosa 43. The method, boiled down: as §1
In a further assay the test system is P. aeruginosa 6065Y. A digest of the protocol: as §1
Setting [2] is: Acinetobacter baumannii, 46, A. baumannii 46.
Setting [3] is: Acinetobacter baumannii, 49, A. baumannii 49.
The mark [4] stands for this setting: Acinetobacter calcoaceticus, ATCC15473, A. calcoaceticus ATCC15473.
The mark [5] stands for this setting: Pseudomonas aeruginosa, 37, P. aeruginosa 37.

The MIC90 is an inhibitory concentration at the 90% level, which refers to growth in some studies and to a panel of isolates in others.

Molecules are shown by their SMILES. ≈ marks a conversion by molar mass, not a printed value. Where two headings read alike, the source gives them in different places. A value given as a limit tells only on which side of the number the result lay.

For the compound `CC(C)(ON=C(C(=O)NC1C(=O)N2C(C(=O)O)=C(C=CC[n+]3cnc(N)c(NC(=O)CCN)c3N)CSC12)c1csc(N)n1)C(=O)O.O=C([O-])C(F)(F)F` (stereo not shown) [Compound 45], the MIC90 in the assay with A. baumannii 46 (A. baumannii 46) is 16 µg/mL; against A. baumannii 49 (A. baumannii 49), over 128 µg/mL; against A. baumannii 52 (A. baumannii 52), over 128 µg/mL; in assay [1] (A. calcoaceticus ATCC15473), 2 µg/mL; against E. cloacae β19, 0.25 µg/mL; against E. coli AG100 (E. coli AG100), 0.25 µg/mL. Besides, the MIC90 against E. coli β4 stood at 0.25 µg/mL; in the assay on K. pneumoniae 2011E (K. pneumoniae 2011E) it was 0.5 µg/mL; in the assay with K. pneumoniae β10 (K. pneumoniae β10), 0.5 µg/mL; in the assay on K. pneumoniae β11 (K. pneumoniae β11), 16 µg/mL; against K. pneumoniae β13 (K. pneumoniae β13), 0.5 µg/mL; with K. pneumoniae β14, 1 µg/mL. Also, the MIC90 is 0.5 µg/mL against K. pneumoniae β9 (K. pneumoniae β9); under 0.0625 µg/mL in the assay on M. catarrhalis 2524 (M. catarrhalis 2524); 4 µg/mL in the assay on P. aeruginosa 1912E; 16 µg/mL with P. aeruginosa 37 (P. aeruginosa 37); 8 µg/mL against P. aeruginosa 40 (P. aeruginosa 40); over 128 µg/mL with P. aeruginosa 43 (P. aeruginosa 43). In the assay on P. aeruginosa 6065Y, this compound had an MIC90 of 16 µg/mL.

`CNCCNc1c[n+](C/C=C/C2=C(C(=O)[O-])N3C(=O)[C@@H](NC(=O)/C(=N\OC(C)(C)C(=O)O)c4csc(N)n4)C3SC2)cnc1N` (stereo partly shown) [Compound 51]: the MIC90 in the assay with A. baumannii 46 (setting [2]) is 8 µg/mL (≈ 12.1 µM); against A. baumannii 49 (setting [3]), over 128 µg/mL; in the assay with A. baumannii 52 (Acinetobacter baumannii, 52), 128 µg/mL (≈ 194 µM); in assay [1] (setting [4]), 0.5 µg/mL (≈ 0.757 µM); with E. cloacae β19 (Enterobacter cloacae) it was 32 µg/mL (≈ 48.4 µM); in the assay with E. coli AG100 (Escherichia coli, AG100), 0.125 µg/mL (≈ 0.189 µM). The MIC90 against E. coli β4 (Escherichia coli) came out at 0.125 µg/mL (≈ 0.189 µM); against K. pneumoniae 2011E (Klebsiella pneumoniae, 2011E), 0.5 µg/mL (≈ 0.757 µM); with K. pneumoniae β10 (Klebsiella pneumoniae), 0.25 µg/mL (≈ 0.378 µM); in the assay with K. pneumoniae β11 (Klebsiella pneumoniae), 32 µg/mL (≈ 48.4 µM); with K. pneumoniae β13 (Klebsiella pneumoniae) it was 0.5 µg/mL (≈ 0.757 µM); in the assay with K. pneumoniae β14 (Klebsiella pneumoniae), 0.5 µg/mL (≈ 0.757 µM). The MIC90 in the assay with K. pneumoniae β9 (Klebsiella pneumoniae) is 0.5 µg/mL (≈ 0.757 µM); in the assay with M. catarrhalis 2524 (Moraxella catarrhalis, 2524), under 0.0625 µg/mL; against P. aeruginosa 1912E (Pseudomonas aeruginosa, 1912E) it was 2 µg/mL (≈ 3.03 µM); against P. aeruginosa 37 (setting [5]) it was 32 µg/mL (≈ 48.4 µM); against P. aeruginosa 40 (Pseudomonas aeruginosa, 40) it was 4 µg/mL (≈ 6.05 µM); with P. aeruginosa 43 (Pseudomonas aeruginosa, 43) it was 64 µg/mL (≈ 96.9 µM). This compound also displayed an MIC90 in the assay on P. aeruginosa 6065Y (Pseudomonas aeruginosa, 6065Y) of 32 µg/mL (≈ 48.4 µM).

On to `C[C@H](O/N=C(\C(=O)N[C@@H]1C(=O)N2C(C(=O)[O-])=C(/C=C/C[n+]3cnc(N)c(NCCN)c3)CSC12)c1csc(N)n1)C(=O)O` (stereo partly shown) [Compound 52], for which the MIC90 is 1 µg/mL (≈ 1.58 µM) in the assay on A. baumannii 46 (setting [2]); over 128 µg/mL in the assay on A. baumannii 49 (setting [3]); over 128 µg/mL in the assay on A. baumannii 52 (Acinetobacter baumannii, 52); 1 µg/mL (≈ 1.58 µM) in [1] (setting [4]); 8 µg/mL (≈ 12.6 µM) in the assay with E. cloacae β19 (Enterobacter cloacae); under 0.0625 µg/mL with E. coli AG100 (Escherichia coli, AG100). In addition, the MIC90 against E. coli β4 (Escherichia coli) is under 0.0625 µg/mL; in the assay with K. pneumoniae 2011E (Klebsiella pneumoniae, 2011E), under 0.0625 µg/mL; with K. pneumoniae β10 (Klebsiella pneumoniae), 1 µg/mL (≈ 1.58 µM); with K. pneumoniae β11 (Klebsiella pneumoniae) it was 128 µg/mL (≈ 202 µM); against K. pneumoniae β13 (Klebsiella pneumoniae), 4 µg/mL (≈ 6.32 µM); against K. pneumoniae β14 (Klebsiella pneumoniae), 8 µg/mL (≈ 12.6 µM). Also, the MIC90 with K. pneumoniae β9 (Klebsiella pneumoniae) was 4 µg/mL (≈ 6.32 µM); in the assay on M. catarrhalis 2524 (Moraxella catarrhalis, 2524) it was under 0.0625 µg/mL; against P. aeruginosa 1912E (Pseudomonas aeruginosa, 1912E) it was 0.5 µg/mL (≈ 0.79 µM); in the assay with P. aeruginosa 37 (setting [5]), 16 µg/mL (≈ 25.3 µM); against P. aeruginosa 40 (Pseudomonas aeruginosa, 40) it was 2 µg/mL (≈ 3.16 µM); with P. aeruginosa 43 (Pseudomonas aeruginosa, 43) it was 32 µg/mL (≈ 50.6 µM). The same compound yielded an MIC90 against P. aeruginosa 6065Y (Pseudomonas aeruginosa, 6065Y) of 4 µg/mL (≈ 6.32 µM).

With `CC(C)(O/N=C(\C(=O)N[C@@H]1C(=O)N2C(C(=O)[O-])=C(/C=C/C[n+]3cnc(N)c(NCCN)c3)CSC12)c1nc(N)sc1Cl)C(=O)O` (stereo partly shown) [Compound 54], the MIC90 in the assay with A. baumannii 46 (setting [2]) was 4 µg/mL (≈ 5.87 µM); against A. baumannii 49 (setting [3]), 128 µg/mL (≈ 188 µM); against A. baumannii 52 (Acinetobacter baumannii, 52), 32 µg/mL (≈ 47 µM); in assay [1] (setting [4]), 1 µg/mL (≈ 1.47 µM); with E. cloacae β19 (Enterobacter cloacae) it was 4 µg/mL (≈ 5.87 µM); with E. coli AG100 (Escherichia coli, AG100) it was 0.25 µg/mL (≈ 0.367 µM). For the same compound, the MIC90 in the assay on E. coli β4 (Escherichia coli) came to 0.5 µg/mL (≈ 0.734 µM); against K. pneumoniae 2011E (Klebsiella pneumoniae, 2011E) it was 1 µg/mL (≈ 1.47 µM); in the assay with K. pneumoniae β10 (Klebsiella pneumoniae), 0.5 µg/mL (≈ 0.734 µM); with K. pneumoniae β11 (Klebsiella pneumoniae), 2 µg/mL (≈ 2.94 µM); against K. pneumoniae β13 (Klebsiella pneumoniae), 1 µg/mL (≈ 1.47 µM); in the assay with K. pneumoniae β14 (Klebsiella pneumoniae), 1 µg/mL (≈ 1.47 µM). In addition, the MIC90 is 1 µg/mL (≈ 1.47 µM) in the assay on K. pneumoniae β9 (Klebsiella pneumoniae); under 0.0625 µg/mL in the assay on M. catarrhalis 2524 (Moraxella catarrhalis, 2524); 2 µg/mL (≈ 2.94 µM) in the assay with P. aeruginosa 1912E (Pseudomonas aeruginosa, 1912E); 4 µg/mL (≈ 5.87 µM) against P. aeruginosa 37 (setting [5]); 4 µg/mL (≈ 5.87 µM) with P. aeruginosa 40 (Pseudomonas aeruginosa, 40); 64 µg/mL (≈ 94 µM) against P. aeruginosa 43 (Pseudomonas aeruginosa, 43). In the assay with P. aeruginosa 6065Y (Pseudomonas aeruginosa, 6065Y), this compound returned an MIC90 of 16 µg/mL (≈ 23.5 µM).

Values taken from patent publication US9630977B2, “Cephalosporin derivatives and pharmaceutical compositions thereof” (Legochem Biosciences, Inc., priority 2011, dated 2017).
